{"source": "ChEMBL document CHEMBL5678800", "about": "(Mol Cancer Ther, 2009)", "test_system": "Rh41", "experiment": "Antiproliferative activity against human Rh41 cells assessed as inhibition of cell growth incubated for 72 hrs by 3H-thymidine incorporation assay", "assay_type": "functional, cell-based", "data": [{"smiles": "Cc1cc(Nc2cc(N3CCN(C)CC3)nc(Sc3ccc(NC(=O)C4CC4)cc3)n2)n[nH]1", "note": "[TOZASERTIB]", "values": [{"measurement": "IC50", "value": 0.093, "unit": "µM"}]}]}
